Experimental findings from patent publication US7985889B2, “AtMIN7 mediated disease resistance to Pseudomonas syringae in Arabidopsis” (priority 2007, dated 2011) are described below.

Holding throughout (assay): Brefeldin A treatment of bacteria-infiltrated detached Arabidopsis leaves: bacterial multiplication and disease symptoms
Holding throughout (type): in vivo

Test [1] relates to Pst DC3000. Conditions: Col-0 gl1 plants treated with water or BFA. How it is done:
(§1) A standard enumeration procedure involves pathogen inoculation, using any one of described methods, supra, followed by assaying bacterial populations present within host tissues at regular intervals. The population present within the tissue was calculated based on the dilution factor divided by the amount of tissue present in each sample. Plotting log (culturable bacterial number/cm^2 leaf tissue) against time (usually in days) after pathogen inoculation produced an unfitted curve, i.e. growth curve. For a review of methods, see, Katagiri et al., in The Arabidopsis Book, Somerville, Meyerowitz, Eds. (American Society of Plant Biologists, Rockville, Md., 2002), website://dx.doi.org/10.1199/tab.0039; herein incorporated by reference.
(§2) Leaves were harvested and surface sterilized as follows: 1) whole leaves were removed from a host plant and gently mixed in a 70% ethanol solution for 1 minute. Leaves were blotted briefly on paper towels then rinsed in sterile distilled water for 1 minute, then blotted dry on paper towels. Leaf disks were excised from leaves with a 0.5 cm^2 or smaller cork borer, depending on the size of the sample leaves; 2) leaf disks from the leaves of 2 or more independent replicate plants were pooled for a single tissue sample and placed in a 1.5-mL microfuge tube with 100 μL sterile distilled water, the amount of leaf tissue per tube was recorded as leaf surface area. Three or more samples were harvested for each time point. Steps 1 and 2 were repeated for each sample; 3) Tissue samples were ground with a microfuge tube plastic pestle, by hand or by using a small hand-held electric drill. […] The number of serial dilutions necessary to get countable colonies were determined for each sample, however dilutions to 10^−7 were usually sufficient for any bacterial strain; 7) The samples were plated on the appropriate medium (e.g., Low salt Luria Bertani) supplemented with the necessary antibiotics to select for the specific inoculated bacterial strain. Plating was done in the traditional way (100 μL of a single sample was spread on a single plate) or several 10 μL aliquots of the 1:10 serial dilutions were spotted on to a single plate and allowed to dry onto the surface; and 8) Plates were placed at 30° C. for approximately 2 days with a cfu value determined for each dilution of each sample. […]
(§3) Leaves were infiltrated with 1×10^6 cfu/ml of bacteria, detached, and placed in microtiter wells with petioles immersed in the 36 μM BFA (Sigma Co.) solution. […] Bacterial populations and disease symptoms were determined on day 0 and day three.

Test [2] has as its system Pst DC3000 ΔCEL mutant. How it is done: as §1, §2, §3
Test [3] concerns hrcC mutant. The following applies: Col-0 gl1 plants treated with water or BFA. How it is done:
as §1, §2, §3

As for `C[C@H]1CCC/C=C/[C@@H]2C[C@H](O)C[C@H]2[C@H](O)/C=C/C(=O)O1` [BFA, Brefeldin A], the “multiplication or disease symptoms caused by Pst DC3000” value in test [1] was “no significant differences”. Moreover, the “virulence (both multiplication and disease symptoms) of the Pst DC3000 ΔCEL mutant” value in test [2] (36 μM BFA, wild-type Col-0 gl1 leaves infiltrated with 1×10^6 cfu/ml, day three, vs water) is given as “significantly enhanced”. Besides, the “restoration of the virulence of the Pst DC3000 ΔCEL mutant, BFA-treated leaves compared with AtMIN7 KO plants” value in test [2] (BFA-treated leaves) is “greater than that in the AtMIN7 KO plants”. Also, in test [3], the “multiplication or disease symptoms caused by the hrcC mutant” value is reported as “no significant differences”.
